# In patent US20170247446A1, “TARGETING K-RAS-MEDIATED SIGNALING PATHWAYS AND MALIGNANCY BY ANTI-hLIF ANTIBODIES” (The Regents of the University of California, priority 2014, published 2017):
# Tested on: PANC2.03 subcutaneous tumors
# Assay: Drug sensitization assay, PANC2.03 subcutaneous tumors in nude mice
# Assay type: in vivo
# Procedure: FIG. 5. […] (B) 50,000 cells of PANC2.03 were subcutaneously injected into nude mice for the tumor initiation assay. The anti-LIF AB (clone D25.1.4) was given before the tumor inoculation at 10 mg/kg. The treatment was given three times a week. […] (C) In drug sensitization assay, 0.2×10^6 cells of PANC2.03 cells were first subcutaneously injected into nude mice. […] The mice were randomly separated into 4 different groups: control, Ab only, gemcitabine only, and combination. […] (D) Tumor volume changing curve in the PANC2.03 subcutaneous tumors with the treatment model of (C). […] Tumor proliferation rate=(Tumor vol on the later day−Tumor vol on the initial day)/Tumor vol on the initial day*100. […] The response to gemcitabine was analyzed in pancreatic cancer cells. […] The effects of LIF-neutralizing antibody were also tested in mouse models. […] In a drug sensitization assay, PANC2.03 cells were subcutaneously injected into nude mice to form tumors, then the mice were treated with anti-LIF antibody, gemcitabine, or a combination of anti-LIF antibody and gemcitabine.
structure (smiles),measurement,setting,value
Nc1ccn([C@@H]2O[C@H](CO)[C@@H](O)C2(F)F)c(=O)n1 [gemcitabine],complete regressions of tumors,"0.2×10^6 PANC2.03 cells s.c., tumors formed within 14 days post-inoculation, then treatment, FIG. 5C",did not lead to the tumor regressions
same,tumor proliferation rate,"(Tumor vol on the later day−Tumor vol on the initial day)/Tumor vol on the initial day*100, FIG. 5E",still had a positive growth rate
same,fold change on tumor volumes,FIG. 5F,still had a positive growth rate
